Calls of active or inactive are those of the source. The calls are words filed in the database; no cut-off is given here.
How the values were obtained:
HCT-116 [1] = assay: Cytotoxicity against human HCT116 cells after 24 hrs by MTT assay; assay type: functional, cell-based; details: for IC50: HCT-116, 24 h
A549 [2] = assay: Cytotoxicity against human A549 cells after 24 hrs by MTT assay; assay type: functional, cell-based; details: for IC50: A549, 24 h
HL-60 [3] = assay: Cytotoxicity against human HL60 cells after 24 hrs by MTT assay; assay type: functional, cell-based; details: for IC50: HL-60, 24 h
HCT-116 [4] = assay: Induction of apoptosis in human HCT116 cells assessed as chromatin condensation apoptotic bodies at 3.2 uM after 24 hrs using Hoechst 33342 staining and fluorescent microscopy; assay type: functional, cell-based
HL-60 [5] = assay: Induction of apoptosis in human HL60 cells assessed as chromatin condensation apoptotic bodies at 5.6 uM after 24 hrs using Hoechst 33342 staining and fluorescent microscopy; assay type: functional, cell-based
A549 [6] = assay: Induction of apoptosis in human A549 cells assessed as chromatin condensation apoptotic bodies at 4.5 uM after 24 hrs using Hoechst 33342 staining and fluorescent microscopy; assay type: functional, cell-based
HepG2 [7] = assay: Transactivation of PPAR transcriptional activity expressed in human HepG2 cells co-expressing PPRE-Luc after 24 hrs by luciferase reporter gene assay relative to negative control; assay type: cell-based
HepG2 [8] = assay: Transactivation of PPAR transcriptional activity expressed in human HepG2 cells co-expressing PPRE-Luc at 10 uM after 24 hrs by luciferase reporter gene assay relative to negative control; assay type: cell-based
HepG2 [9] = assay: Transactivation of PPAR transcriptional activity expressed in human HepG2 cells co-expressing PPRE-Luc at 1 uM after 24 hrs by luciferase reporter gene assay relative to negative control; assay type: cell-based

SMILES	IC50 (HCT-116 [1])	IC50 (A549 [2])	IC50 (HL-60 [3])	Activity (HCT-116 [4])	Activity (HL-60 [5])	Activity (A549 [6])	Activity (HCT-116 [1])	Activity (A549 [2])	Activity (HL-60 [3])	Activity (HepG2 [7])	fold change (FC) (HepG2 [8])	fold change (FC) (HepG2 [9])
C[C@H](CC[C@H](C)C(C)(C)O)[C@H]1CC[C@H]2[C@@H]3CC=C4C[C@@H](O)CC[C@]4(C)[C@H]3CC[C@]12C	18.1 µM	> 20 µM	> 20 µM									
O=C1c2c(O)ccc(O)c2C(=O)c2c(NCCNCCO)ccc(NCCNCCO)c21 [MITOXANTRONE]			8.2 µM									
CC(C)[C@H](C)[C@H](C)[C@@H](O)[C@]1(C)O[C@]12CC[C@H]1[C@@H]3CC[C@H]4[C@H](C)[C@@H](O)CC[C@]4(C)[C@H]3CC[C@@]12C [LOBOPHYTOSTEROL]	3.2 µM	4.5 µM	5.6 µM	Active	Active	Active						
CC(C)CCC[C@@H](C)[C@H]1CC[C@H]2[C@@H]3CC=C4C[C@@H](O)CC[C@]4(C)[C@H]3CC[C@]12C							inactive	inactive	inactive			
CC(C)[C@@H](C)CC[C@@H](C)[C@H]1CC[C@H]2[C@@H]3[C@H](O)C=C4C[C@@H](O)CC[C@]4(C)[C@H]3CC[C@]12C							inactive	inactive	inactive	Dose-dependent effect	2.5	1.2
CC(=O)[C@H]1CC[C@H]2[C@@H]3CC=C4C[C@@H](O)CC[C@]4(C)[C@H]3CC[C@]12C							inactive	inactive	inactive	Dose-dependent effect	2.1	1.6
C[C@H]1C[C@]2(O[C@H]3C[C@H]4[C@@H]5CC=C6C[C@@H](O)CC[C@]6(C)[C@H]5CC[C@]4(C)[C@H]3[C@@]2(C)O)OC1(C)C	6.9 µM	> 20 µM	> 20 µM							Dose-dependent effect	2	1.4

— ChEMBL document CHEMBL1781940, “Cytotoxic and PPARs transcriptional activities of sterols from the Vietnamese soft coral Lobophytum laevigatum” (Bioorg Med Chem Lett, 2011)
